The series concerns HEK293 NF-kB-luciferase reporter cells. Briefly: NF-kB luciferase reporter activity, robust Z-score vs plate median (robust Z-score (log luminescence)); higher = stronger NF-kB reporter activation. To be noted: TNF treatment time 8.5 h, transfection time 72 h. Here is the method:
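Primary screen of an Ambion Pre-miR miRNA mimic library (miRBase v8.0, 1.6 pmol/well, 384-well, duplicate) reverse-transfected into HEK293 cells stably expressing a 5x NF-kB firefly luciferase reporter. After 72 h the cells were treated with vehicle or TNF (40 ng/mL) for 8.5 h and luminescence was read (BriteLite). Raw luminescence was log-transformed and converted to a robust Z-score per plate: (x - plate median)/plate MAD. Sequence given is the mature miRNA strand of the double-stranded mimic.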
A general note: Reporter assays use an easily measured gene product as a stand-in for the process of interest.

± gives the standard deviation of the averaged measurements.

The source of these data is the supplement of paper PMC3621838.

As to UAGGCAGUGUCAUUAGCUGAUUG, the “NF-kB luciferase reporter activity” value (TNF 0 ng/mL) turned out to be 2.71 ± 0.93 and the “NF-kB luciferase reporter activity” value (TNF 40 ng/mL) was -1.42 ± 0.053.
Taken in the same sequence, the figures for UAGGUAGUUUCCUGUUGUUGG were -1.2 ± 0.5 and -0.972 ± 0.18.
Turning to UAUACAAGGGCAAGCUCUCUGU, the “NF-kB luciferase reporter activity” value is -1.38 ± 0.64 (TNF 0 ng/mL) and -1.11 ± 0.035 (TNF 40 ng/mL).
Taken in the same sequence, the figures for UAUGGCUUUUCAUUCCUAUGUG were -0.314 ± 0.58 and -0.369 ± 0.0092.
Taken in the same sequence, the figures for UAUGUAAUAUGGUCCACAUCUU were -1.06 ± 0.48 and -1.342 ± 0.0044.
Taken in the same sequence, the figures for UAUGUGCCUUUGGACUACAUCG were -0.472 ± 0.26 and -1.23 ± 0.037.
As for UAUGUGGGAUGGUAAACCGCUU, the “NF-kB luciferase reporter activity” value is, setting by setting: (TNF 0 ng/mL) 0.166 ± 0.72; (TNF 40 ng/mL) -1.21 ± 0.026.
Taken in the same sequence, the figures for UCAAGAGCAAUAACGAAAAAUGU were 0.225 ± 0.32 and 1.08 ± 0.015.
Taken in the same sequence, the figures for UCACAGUGAACCGGUCUCUUUC were -1.06 ± 0.48 and 0.0486 ± 0.083.
Taken in the same sequence, the figures for UCACUCCUCUCCUCCCGUCUUCU were 2.53 ± 0.2 and 1.87 ± 0.1.
Consider UCAGGCUCAGUCCCCUCCCGAU, for which the “NF-kB luciferase reporter activity” value is, setting by setting: (TNF 0 ng/mL) -0.315 ± 0.14; (TNF 40 ng/mL) -0.227 ± 0.1.
Taken in the same sequence, the figures for UCAGUCUCAUCUGCAAAGAAG were 2.97 ± 0.59 and 1.58 ± 0.083.
Taken in the same sequence, the figures for UCAGUGCAUCACAGAACUUUGU were 0.225 ± 0.32 and 0.0758 ± 0.04.
Taken in the same sequence, the figures for UCAGUGCAUGACAGAACUUGGG were -0.378 ± 0.05 and 0.0929 ± 0.021.
For UCCAGCAUCAGUGAUUUUGUUGA, the “NF-kB luciferase reporter activity” value came out at 0.425 ± 0.23 (TNF 0 ng/mL) and 0.858 ± 0.14 (TNF 40 ng/mL).
Taken in the same sequence, the figures for UCCAGCUCCUAUAUGAUGCCUUU were 3.61 ± 0.75 and -0.188 ± 0.11.
Taken in the same sequence, the figures for UCCCUGAGACCCUUUAACCUGUG were 0.417 ± 0.12 and 1.32 ± 0.15.
As for UCCCUGUCCUCCAGGAGCUCA, the “NF-kB luciferase reporter activity” value reads like this: (TNF 0 ng/mL) 0.322 ± 0.46; (TNF 40 ng/mL) 0.69 ± 0.39.
Taken in the same sequence, the figures for UCCGUCUCAGUUACUUUAUAGCC were 0.757 ± 0.51 and 0.334 ± 0.055.
Taken in the same sequence, the figures for UCCUGUACUGAGCUGCCCCGAG were 0.874 ± 0.074 and 1.15 ± 0.17.
Taken in the same sequence, the figures for UCGGGGAUCAUCAUGUCACGAG were 1.13 ± 0.071 and 0.339 ± 0.01.
With UCGUGCAUCCCUUUAGAGUGUU, the “NF-kB luciferase reporter activity” value (TNF 0 ng/mL) came to 1.73 ± 0.3 and the “NF-kB luciferase reporter activity” value (TNF 40 ng/mL) turned out to be 1.07 ± 0.079.
Taken in the same sequence, the figures for UCUACAAAGGGAAGCCCUUUCUG were -0.631 ± 0.31 and 0.879 ± 0.11.
Taken in the same sequence, the figures for UCUACAGUGCACGUGUCU were -1.16 ± 0.34 and -0.417 ± 0.031.
Taken in the same sequence, the figures for UCUCACACAGAAAUCGCACCCGUC were 0.103 ± 1.2 and 0.598 ± 0.025.
In the case of UCUCCCAACCCUUGUACCAGUG, the “NF-kB luciferase reporter activity” value is 0.0398 ± 0.056 (TNF 0 ng/mL) and 1.18 ± 0.046 (TNF 40 ng/mL).
Taken in the same sequence, the figures for UCUCUGGAGGGAAGCACUUUCUG were -0.463 ± 0.65 and -0.521 ± 0.11.
Taken in the same sequence, the figures for UCUGCAAAGGGAAGCCCUUU were 0.625 ± 1.3 and 0.788 ± 0.045.
Taken in the same sequence, the figures for UCUGGCUCCGUGUCUUCACUCC were 0.957 ± 0.014 and -1.34 ± 0.046.
Turning to UCUUGGAGUAGGUCAUUGGGUGG, the “NF-kB luciferase reporter activity” value runs as follows: (TNF 0 ng/mL) 1.37 ± 0.57; (TNF 40 ng/mL) 0.913 ± 0.027.
